The values below come from publication PMC11656837, “pH-Responsive Peptide Nanoparticles Deliver Macromolecules to Cells via Endosomal Membrane Nanoporation” (ACS Nano, 2024).

Where no end group is shown, it is not given here.

Data set [1] deals with HeLa cells. The following applies: HeLa, 48 h. The text has this: For this, we use PE-III, the third domain of the Pseudomonas exotoxin. This 25 kDa enzyme ADP ribosylates ribosomal elongation factor 2, thereby blocking protein synthesis and triggering apoptosis. […] Thus, apoptosis will occur only if an exogenous agent, such as a peptide, enables cytosolic delivery of the 4 × 3 nm PE-III protein, Figure 2A.
Comparison of peptide concentration midpoints requires a constant concentration of PE-III in each experiment. […] The major disadvantage of the PE-III assay to detect delivery is that only a few molecules of active PE-III delivered to the cytosol[36] will produce a positive result. To partly mitigate this effect in the assays described below, we use a constant 40 nM PE-III. At such a low concentration, each endosome will contain an average of fewer than one PE-III molecule if we assume passive entrapment of the cargo (see the Supporting Information).
The no treatment (no tx) control group contained cells but no peptide or PE-III enzyme. The Alamar Blue intensity of this group was defined as 100% viability. Media alone without cells was defined as 0% viability.
The concentration range used for each peptide was adjusted according to preliminary measurements of activity in this assay. We assessed PE-III delivery by measuring cell viability using Alamar Blue.
Fifteen thousand HeLa cells were seeded in a clear bottom, black-walled 96-well plate overnight at 37 °C with 5% CO2 in complete media (DMEM + phenol red +10% FBS + antimycotic/antibiotic + nonessential amino acids). Cells were then washed once in PBS and treated with PE-III and peptide in serum-free media without phenol red, with a 50 μL total volume. After a 2-day incubation with treatment, 50 μL of 10% Alamar blue reagent diluted in serum-free media was added directly to each well (5% Alamar blue final) and incubated for 1.5 h at 37 °C. The plate was then read at 550 equiv/590 em on a Biotek plate reader. Untreated cells were used as a negative control, and MelP5-treated cells served as a positive control.

A further data set relates to RAW macrophages. The note with it: read-out: EC50 (peptide concentration midpoint for PE-III delivery), PE-III constant, 48 h, Alamar Blue.
In data set [2] the test system is HeLa cells. Put plainly: Direct cytotoxicity without PE-III cargo (Alamar Blue). Type of data set: cell-based, human. The note with it: 200 μM peptide, no PE-III, 48 h. How it is done:
The no treatment (no tx) control group contained cells but no peptide or PE-III enzyme. The Alamar Blue intensity of this group was defined as 100% viability. Media alone without cells was defined as 0% viability. […] When 200 μM D-pHD108 and 40 nM PE-III were added together, essentially 100% loss of cell viability was observed, showing that PE-III was effectively delivered to the cytosol by the pHD peptide. […] This observation provides strong support for the hypothesis that PE-III delivery occurs via endocytosis and that it is dependent on endosomal acidification because the L-amino acid peptide, but not the D-amino acid peptide, is susceptible to acidification-dependent proteolytic degradation which occurs in endosomal compartments.
We tested for direct toxicity of the acylated pHD peptides by incubating the same concentrations of acylated pHD peptide variants with cells in the absence of PE-III. […] Thus, all of the apoptosis observed in the PE-III delivery assays was due to the cytosolic delivery of intact PE-III and not to the direct action of the acylated pHD peptide.

With `CC[C@@H](C)[C@@H](NC(=O)CN)C(=O)NCC(=O)N[C@H](CCC(=O)O)C(=O)N[C@@H](C(=O)N[C@H](CC(C)C)C(=O)N[C@H](Cc1c[nH]cn1)C(=O)N[C@H](CCC(=O)O)C(=O)N[C@H](CC(C)C)C(=O)N[C@H](C)C(=O)N[C@H](CCC(=O)O)C(=O)NCC(=O)N[C@H](CC(C)C)C(=O)N1CCC[C@@H]1C(=O)N[C@H](CCC(=O)O)C(=O)N[C@H](CC(C)C)C(=O)N[C@H](CCC(N)=O)C(=O)N[C@H](CCC(=O)O)C(=O)N[C@H](Cc1c[nH]c2ccccc12)C(=O)N[C@@H](C(=O)N[C@H](Cc1c[nH]cn1)C(=O)N[C@H](C)C(=O)N[C@H](C)C(=O)N[C@H](CCC(N)=O)C(=O)N[C@H](CCC(N)=O)C(=O)N[C@H](CC(C)C)C(N)=O)[C@H](C)CC)C(C)C` [D-pHD108], in the data set on HeLa cells [1] (200 μM peptide + 40 nM PE-III, 37 °C, Alamar Blue), the “loss of cell viability” value is reported as around 100%. In the data set on RAW macrophages, the EC50 came to 75 µM. The “effect on cell viability, peptide alone” value with HeLa cells [2] is recorded as “no effect on cell viability”.
With “PLGRPQLRRGQF-NH2 [ONEG, reference compound]”, the PE-III delivery/apoptosis result in the data set on HeLa cells [1] (same concentration range as unmodified pHD108, 40 nM PE-III) is on record as “no measurable PE-III delivery/apoptosis”.
